pIC50: −log10 of the molar value. Like-named read-outs stand apart in the source and are kept apart here.
How the values were obtained:
Format in all cases: biochemical
ABHD6 = ABHD6 (Mus musculus (Mouse), UniProt Q8R2Y0); assay: In vitro competitive activity-based protein profiling (mouse brain membrane fraction or cell lysates), ABHD6 band; conditions: for inhibition at 1 µM: read-out: ABHD6 % Inh 1 μM (mouse); for pIC50: competitive ABPP
Description: (§1) In Vitro Competitive Activity-Based Protein Profiling.
(§2) Proteomes (mouse brain membrane fraction or cell lysates) (50 μL, 1.0 mg/mL total protein concentration) were preincubated with varying concentrations of inhibitors at 37° C. After 30 min, FP—Rh (1.0 μL, 50 μM in DMSO) was added and the mixture was incubated for another 30 min at 37° C. Reactions were quenched with SDS loading buffer (50 μL-4×) and run on SDS-PAGE. Following gel imaging, serine hydrolase activity was determined by measuring fluorescent intensity of gel bands corresponding to MAGL, ABHD6 and FAAH using ImageJ 1.43u software.

MAGL = MAGL (Mus musculus (Mouse), UniProt O35678); assay: In vitro competitive activity-based protein profiling (mouse brain membrane fraction or cell lysates), MAGL band; conditions: mouse proteome; for inhibition at 1 µM: read-out: MAGL % Inh 1 μM (mouse); for pIC50: competitive ABPP
Description: as §1
Proteomes (mouse brain membrane fraction or cell lysates) (50 μL, 1.0 mg/mL total protein concentration) were preincubated with varying concentrations of inhibitors at 37° C. After 30 min, FP—Rh (1.0 μL, 50 μM in DMSO) was added and the mixture was incubated for another 30 min at 37° C. Reactions were quenched with SDS loading buffer (50 μL-4×) and run on SDS-PAGE.

FAAH = FAAH (Mus musculus (Mouse), UniProt O08914); assay: In vitro competitive activity-based protein profiling (mouse brain membrane fraction or cell lysates), FAAH band; conditions: for inhibition at 1 µM: read-out: FAAH % Inh 1 μM (mouse); for pIC50: competitive ABPP
Description: as §1, §2

FAAH, sequence (O08914 whole entry): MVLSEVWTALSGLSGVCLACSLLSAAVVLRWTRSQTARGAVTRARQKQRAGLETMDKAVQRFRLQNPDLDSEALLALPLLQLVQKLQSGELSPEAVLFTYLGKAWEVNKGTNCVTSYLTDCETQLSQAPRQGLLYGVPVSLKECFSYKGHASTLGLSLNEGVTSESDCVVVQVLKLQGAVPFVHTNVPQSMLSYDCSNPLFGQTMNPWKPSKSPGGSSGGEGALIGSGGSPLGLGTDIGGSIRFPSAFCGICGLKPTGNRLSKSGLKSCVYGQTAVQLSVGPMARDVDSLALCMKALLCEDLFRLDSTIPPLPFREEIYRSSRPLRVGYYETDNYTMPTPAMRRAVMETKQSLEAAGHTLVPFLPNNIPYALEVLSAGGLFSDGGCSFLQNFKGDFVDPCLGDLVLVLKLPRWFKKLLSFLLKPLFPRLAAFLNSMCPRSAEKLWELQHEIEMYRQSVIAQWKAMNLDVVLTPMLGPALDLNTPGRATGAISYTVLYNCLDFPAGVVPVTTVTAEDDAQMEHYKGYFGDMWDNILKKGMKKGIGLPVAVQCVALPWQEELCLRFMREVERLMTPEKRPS
ABHD6, sequence (Q8R2Y0 whole entry): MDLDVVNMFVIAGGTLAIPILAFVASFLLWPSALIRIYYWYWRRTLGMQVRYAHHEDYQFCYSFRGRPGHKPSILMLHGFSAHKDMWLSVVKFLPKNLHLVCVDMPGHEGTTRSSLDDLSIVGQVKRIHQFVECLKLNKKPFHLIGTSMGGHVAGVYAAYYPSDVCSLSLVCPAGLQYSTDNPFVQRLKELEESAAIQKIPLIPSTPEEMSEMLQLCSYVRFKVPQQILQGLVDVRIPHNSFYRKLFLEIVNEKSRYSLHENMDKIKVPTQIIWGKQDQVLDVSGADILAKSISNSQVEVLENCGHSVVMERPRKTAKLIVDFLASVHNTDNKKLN
MAGL, sequence (O35678 whole entry): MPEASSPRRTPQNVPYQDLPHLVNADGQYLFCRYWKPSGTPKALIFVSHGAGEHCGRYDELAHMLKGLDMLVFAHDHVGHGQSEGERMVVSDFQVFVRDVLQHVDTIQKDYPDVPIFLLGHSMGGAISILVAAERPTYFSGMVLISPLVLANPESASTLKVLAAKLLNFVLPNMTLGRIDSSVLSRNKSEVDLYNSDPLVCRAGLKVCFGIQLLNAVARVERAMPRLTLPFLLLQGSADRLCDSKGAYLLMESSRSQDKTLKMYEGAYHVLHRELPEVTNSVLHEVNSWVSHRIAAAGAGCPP

Compound | inhibition at 1 µM (ABHD6; mouse proteome) [%] | pIC50 (ABHD6; mouse proteome) | inhibition at 1 µM (MAGL) [%] | inhibition at 1 µM (FAAH; mouse proteome) [%] | pIC50 (FAAH; mouse proteome) | pIC50 (MAGL) | inhibition at 1 µM (ABHD6; mouse) [%] | inhibition at 1 µM (FAAH; mouse) [%]
COc1ccc(CN2CCCC23CCN(C(=O)OC(C(F)(F)F)C(F)(F)F)CC3)cc1 [Example 1, 1,1,1,3,3,3-Hexafluoropropan-2-yl 1-(4-methoxybenzyl)-1,8-diazaspiro[4.5]decane-8-carboxylate] | < 25 | < 6.00 | > 75 | < 25 | < 6.00 | – | – | –
COc1cccc(CN2CCCC23CCN(C(=O)OC(C(F)(F)F)C(F)(F)F)CC3)c1 [Example 2, 1,1,1,3,3,3-Hexafluoropropan-2-yl 1-(3-methoxybenzyl)-1,8-diazaspiro[4.5]decane-8-carboxylate] | < 25 | < 6.00 | > 75 | < 25 | < 6.00 | 6.00 to 7.00 | – | –
COc1ccccc1CN1CCCC12CCN(C(=O)OC(C(F)(F)F)C(F)(F)F)CC2 [Example 3, 1,1,1,3,3,3-Hexafluoropropan-2-yl 1-(2-methoxybenzyl)-1,8-diazaspiro[4.5]decane-8-carboxylate] | < 25 | < 6.00 | > 75 | < 25 | < 6.00 | 6.00 to 7.00 | – | –
CCOc1ccccc1CN1CCCC12CCN(C(=O)OC(C(F)(F)F)C(F)(F)F)CC2 [Example 6, 1,1,1,3,3,3-Hexafluoropropan-2-yl 1-(2-ethoxybenzyl)-1,8-diazaspiro[4.5]decane-8-carboxylate] | – | < 6.00 | – | – | < 6.00 | 6.00 to 7.00 | – | –
O=C(OC(C(F)(F)F)C(F)(F)F)N1CCC2(CCCN2Cc2cccc(OCCN3CCCCC3)c2)CC1 [Example 11, 1,1,1,3,3,3-Hexafluoropropan-2-yl 1-(3-(2-(piperidin-1-yl)ethoxy)benzyl)-1,8-diazaspiro[4.5]decane-8-carboxylate] | < 25 | < 6.00 | > 75 | < 25 | < 6.00 | 6.00 to 7.00 | – | –
O=C(OC(C(F)(F)F)C(F)(F)F)N1CCC2(CCCN2Cc2cccc(OCCN3CCCC3)c2)CC1 [Example 12, 1,1,1,3,3,3-Hexafluoropropan-2-yl 1-(3-(2-(pyrrolidin-1-yl)ethoxy)benzyl)-1,8-diazaspiro[4.5]decane-8-carboxylate] | < 25 | < 6.00 | > 75 | < 25 | < 6.00 | 6.00 to 7.00 | – | –
O=C(OC(C(F)(F)F)C(F)(F)F)N1CCC2(CCCN2Cc2cccc(OCCN3CCOCC3)c2)CC1 [Example 13, 1,1,1,3,3,3-Hexafluoropropan-2-yl 1-(3-(2-morpholinoethoxy)benzyl)-1,8-diazaspiro[4.5]decane-8-carboxylate] | < 25 | < 6.00 | > 75 | < 25 | < 6.00 | 6.00 to 7.00 | – | –
O=C(OC(C(F)(F)F)C(F)(F)F)N1CCC2(CCCN2Cc2ccc(OCCN3CCOCC3)cc2)CC1 [Example 14, 1,1,1,3,3,3-Hexafluoropropan-2-yl 1-(4-(2-morpholinoethoxy)benzyl)-1,8-diazaspiro[4.5]decane-8-carboxylate] | < 25 | – | > 75 | < 25 | – | – | – | –
O=C(OC(C(F)(F)F)C(F)(F)F)N1CCC2(CCCN2Cc2ccc(OCCN3CCCCC3)c(Cl)c2)CC1 [Example 15, 1,1,1,3,3,3-Hexafluoropropan-2-yl 1-(3-chloro-4-(2-(piperidin-1-yl)ethoxy)benzyl)-1,8-diazaspiro[4.5]decane-8-carboxylate] | < 25 | < 6.00 | > 75 | < 25 | < 6.00 | 6.00 to 7.00 | – | –
O=C(OC(C(F)(F)F)C(F)(F)F)N1CCC2(CCCN2Cc2cc(Cl)cc(N3CC4COCC4C3)c2)CC1 (centres unmarked) [Example 38, 1,1,1,3,3,3-Hexafluoropropan-2-yl 1-(3-chloro-5-(tetrahydro-1H-furo[3,4-c]pyrrol-5(3H)-yl)benzyl)-1,8-diazaspiro[4.5]decane-8-carboxylate] | < 25 | < 6.00 | > 75 | 25 to 75 | < 6.00 | > 7.00 | – | –
O=C(OC(C(F)(F)F)C(F)(F)F)N1CCC2(CCCN2Cc2cc(Cl)cc(N3CCC(F)CC3)c2)CC1 [Example 39, 1,1,1,3,3,3-Hexafluoropropan-2-yl 1-(3-chloro-5-(4-fluoropiperidin-1-yl)benzyl)-1,8-diazaspiro[4.5]decane-8-carboxylate] | < 25 | < 6.00 | > 75 | < 25 | < 6.00 | > 7.00 | – | –
CS(=O)(=O)N1CCN(c2cc(Cl)cc(CN3CCCC34CCN(C(=O)OC(C(F)(F)F)C(F)(F)F)CC4)c2)CC1 [Example 40, 1,1,1,3,3,3-Hexafluoropropan-2-yl 1-(3-chloro-5-(4-(methylsulfonyl)piperazin-1-yl)benzyl)-1,8-diazaspiro[4.5]decane-8-carboxylate] | < 25 | < 6.00 | > 75 | < 25 | < 6.00 | > 7.00 | – | –
O=C(OC(C(F)(F)F)C(F)(F)F)N1CCC2(CCCN2Cc2cc(N3CCN(C4CC4)CC3)cc(C(F)(F)F)c2)CC1 [Example 41, 1,1,1,3,3,3-Hexafluoropropan-2-yl 1-(3-(4-cyclopropylpiperazin-1-yl)-5-(trifluoromethyl)benzyl)-1,8-diazaspiro[4.5]decane-8-carboxylate] | < 25 | < 6.00 | > 75 | < 25 | < 6.00 | > 7.00 | – | –
O=C(OC(C(F)(F)F)C(F)(F)F)N1CCC2(CCCN2Cc2cc(N3CCC(C(F)(F)F)CC3)cc(C(F)(F)F)c2)CC1 [Example 44, 1,1,1,3,3,3-Hexafluoropropan-2-yl 1-(3-(trifluoromethyl)-5-(4-(trifluoromethyl)piperidin-1-yl)benzyl)-1,8-diazaspiro[4.5]decane-8-carboxylate] | – | < 6.00 | – | – | < 6.00 | – | – | –
COc1cc(Cl)ccc1CN1CC2(CCN(C(=O)OC(C(F)(F)F)C(F)(F)F)CC2)CC1(C)C [Example 49, 1,1,1,3,3,3-Hexafluoropropan-2-yl 2-(4-chloro-2-methoxybenzyl)-3,3-dimethyl-2,8-diazaspiro[4.5]decane-8-carboxylate] | < 25 | < 6.00 | > 75 | < 25 | < 6.00 | – | – | –
CC1(C)CC2(CCN(C(=O)OC(C(F)(F)F)C(F)(F)F)CC2)CN1Cc1ccc(C(F)(F)F)cc1N1CC2COCC2C1 (centres unmarked) [Example 55, 1,1,1,3,3,3-Hexafluoropropan-2-yl 3,3-dimethyl-2-(2-(tetrahydro-1H-furo[3,4-c]pyrrol-5(3H)-yl)-4-(trifluoromethyl)benzyl)-2,8-diazaspiro[4.5]decane-8-carboxylate] | < 25 | < 6.00 | > 75 | < 25 | < 6.00 | > 7.00 | – | –
O=C(O)C1CCN(c2cc(Cl)ccc2CN2CCC3(CCN(C(=O)OC(C(F)(F)F)C(F)(F)F)CC3)C2)CC1 [Example 118, 1-(5-chloro-2-((8-(((1,1,1,3,3,3-hexafluoropropan-2-yl)oxy)carbonyl)-2,8-diazaspiro[4.5]decan-2-yl)methyl)phenyl)piperidine-4-carboxylic acid] | < 25 | < 6.00 | – | < 25 | < 6.00 | – | – | –
O=C(O)c1ccc(CN2CCCC23CCN(C(=O)OC(C(F)(F)F)C(F)(F)F)CC3)cc1C(F)(F)F [Example 182, 4-((8-((1,1,1,3,3,3-Hexafluoropropan-2-yloxy)carbonyl)-1,8-diazaspiro[4.5]decan-1-yl)methyl)-2-(trifluoromethyl)benzoic acid] | < 25 | < 6.00 | – | < 25 | < 6.00 | – | – | –
O=C(O)C1CCN(c2cc(F)ccc2CN2CCC3(CCN(C(=O)OC(C(F)(F)F)C(F)(F)F)CC3)C2)CC1 [Example 237] | – | – | – | – | – | – | 25 to 75 | < 25
Cc1cc(CN2CCCC23CCN(C(=O)OC(C(F)(F)F)C(F)(F)F)CC3)cc(C(=O)O)c1 [Example 243] | – | – | – | – | – | – | < 25 | < 25
O=C(O)C1CCN(Cc2cc(CN3CCC4(CCN(C(=O)OC(C(F)(F)F)C(F)(F)F)CC4)C3)ccc2Cl)CC1 [Example 246] | – | – | – | – | – | – | 25 to 75 | < 25
O=C(O)c1cc(CN2CCC3(CCN(C(=O)OC(C(F)(F)F)C(F)(F)F)CC3)C2)ccc1C(F)(F)F [Example 255] | – | – | – | – | – | – | 25 to 75 | < 25
CC1(C(=O)O)CN(c2cc(C(F)(F)F)ccc2CN2CCCC23CCN(C(=O)OC(C(F)(F)F)C(F)(F)F)CC3)CCO1 (centres unmarked) [Example 260] | – | – | – | – | – | – | < 25 | < 25
O=C(O)c1cc(CN2CCCC23CCN(C(=O)OC(C(F)(F)F)C(F)(F)F)CC3)ccc1Cl [Example 266] | – | – | – | – | – | – | < 25 | < 25
